This note sets out measurements from US20240317706A1, “COMPOUNDS THAT MEDIATE PROTEIN DEGRADATION AND METHODS OF USE THEREOF” (Monte Rosa Therapeutics, Inc., priority 2021, published 2024).

Each structure is given as a SMILES string.

Assay [1] deals with T1, CDK2 (Homo sapiens, UniProt P24941).
T1 construct: HEK293 clonal lines with CRISPR KI HiBiT tag on CDK2 proteins; host or cells: HEK293 clonal line, CRISPR knock-in HiBiT-CDK2, stably expressing LgBiT
The assay can be described thus: HiBiT assay (CDK2 degradation). In kind it is cell-based. Conditions: HEK293 clonal line with CRISPR KI HiBiT tag on CDK2, 24 hours, HiBiT Lysis Reagent. As for the experimental part:
HEK293 clonal lines with CRISPR KI HiBiT tag on CDK2 proteins and stably expressing LgBiT protein were obtained from Promega (Madison, WI). Cells were plated at 5000 cells per well using Multiflo (BioTek) in 384-well white solid bottom plates (Corning, 3570BC) in 25 ul volume in DMEM media (DMEM, high glucose, HEPES, no phenol red (ThermoFisher Scientific, 21063029)) containing 10% FBS (Corning, 35-075-CV), 1% Penicillin/Streptomycin (ThermoFisher Scientific, 15140-122). Cells were incubated for 16 hours at 37° C., 5% CO2. 75 nL of a compound at 30 μM were dosed into the plate using an Echo® 650 liquid handler (Labcyte). Cells were incubated at 37° C., 5% CO2 for 24 hours. 5 ul of HiBiT Lysis Reagent (Promega, N3030) is added using Combi Multidrop (ThermoFisher Scientific), plates are incubated for 15′ at 37° C., 5% CO2 and then signal was read on a Pherastar FSX using “LUM plus” optic module.
Analysis was performed in Scinamic (Scinamic, Cambridge, MA). Luminescence response (R) was calculated by the formula: response=100*(S−N)/(P−N) where S is the signal of the well, N and P the mean negative and positive control values respectively of the same plate. The luminescence response was then fitted in Scinamic using a 3-parameter agonist logistic fit (hillslope=1, EC50>0, top/bottom unconstrained).
On the technique in general: The HiBiT peptide binds its large partner to form an active luciferase.

The next assay deals with CRBN-DDB1 (Homo sapiens, UniProt Q96SW2). The assay can be described thus: Compound binding to CRBN by HTRF assay. As to conditions: CRBN-DDB1 2.5 nM, Cy5-Thalidomide 100 nM, 30 min; Ki from geometric mean IC50 by Cheng-Prustoff transformation. As for the experimental part: Compound activity was monitored in a Homogenous Time-Resolved Fluorescence (HTRF) assay using 1-[5-({2-[2-(2-{[2-(2,6-dioxopiperidin-3-yl)-1,3-dioxo-2,3-dihydro-1H-isoindol-4-yl]oxy}acetamido)ethoxy]ethyl}carbamoyl)pentyl]-3,3-dimethyl-2-[(1E,3E)-5-[(2E)-1,3,3-trimethyl-5-sulfo-2,3-dihydro-1H-indol-2-ylidene]penta-1,3-dien-1-yl]-3H-indol-1-ium-5-sulfonate as a fluorescent probe. Biochemical assays were conducted in Greiner white 384 well HiBase plates (Cat. No 784075-25) in 10 μL total volume. A one pot detection solution of CRBN-DDB1 (2.5 nM), Anti-His Terbium Cryptate Gold (1×, PerkinElmer Cat. #: 61HI2TLB), and Cy5-Thalidomide (100 nM, Tenova Cat.: T52461) was prepared in 20 mM HEPES, 20 mM NaCl, 0.2 mM TCEP, 0.2 mM EDTA, and 0.005% Tween20 was dispensed to each assay plate. Compounds were stored in dry, ambient temperatures at 10 mM. A 10-point, 1:3 dilution series was prepared from 10 mM stock concentrations in Echo-compatible LDV plates. 10 nL of each compound dilution series was dispensed into assays wells using an Echo 650 (Labcyte inc. USA). 10 nL of 10 mM Lenalidomide was transferred into the active-control wells for the assay and 10 nL of DMSO was transferred into the neutral-control wells. The assay was then allowed to incubate for 30 min at ambient temperature after transferring compound. Plate measurements were taken on a Pherastar FSX (BMG Labtech, Germany) using the HTRF Red filter (Ex. 337 nm, em1: 620 nm, em2: 665 nm) (Flashes: 50, Integration time: 60-400 us, Z-height: 10 mm, Ratio-multiplier: 10,000). The HTRF signal was then subsequently normalized to the neutral and active controls. Analysis and IC50 values were derived using KNIME analytics (KNIME Zurich) transformation and fitting within Collaborative Drug Discovery (Collaborative Drug Discovery USA). Ki was derived from the geometric mean of the IC50 values using the Cheng-Prustoff transformation.
Background: In TR-FRET formats the signal depends on donor and acceptor labels being close together.

In assay [2] the target is T1, CDK2. The assay can be described thus: NanoBiT assay (CDK2 degradation). In kind it is cell-based. As to conditions: 24 hours; for Dmax: HEK293, HEK293 clonal line with CRISPR KI HiBiT tag on CDK2, Endurazine live cell substrate. The procedure, abridged:
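HEK293 cells with endogenous HiBiT-tagged CDK2 knock-in and stable LgBiT, with Endurazine live-cell substrate; cells were dosed with compound (30 μM stock) for 24 h at 37 °C, then luminescence was read. Response normalised to plate negative/positive controls and fitted to a 3-parameter logistic (hillslope=1) for EC50.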

Sequence of CRBN-DDB1 (Q96SW2 whole entry): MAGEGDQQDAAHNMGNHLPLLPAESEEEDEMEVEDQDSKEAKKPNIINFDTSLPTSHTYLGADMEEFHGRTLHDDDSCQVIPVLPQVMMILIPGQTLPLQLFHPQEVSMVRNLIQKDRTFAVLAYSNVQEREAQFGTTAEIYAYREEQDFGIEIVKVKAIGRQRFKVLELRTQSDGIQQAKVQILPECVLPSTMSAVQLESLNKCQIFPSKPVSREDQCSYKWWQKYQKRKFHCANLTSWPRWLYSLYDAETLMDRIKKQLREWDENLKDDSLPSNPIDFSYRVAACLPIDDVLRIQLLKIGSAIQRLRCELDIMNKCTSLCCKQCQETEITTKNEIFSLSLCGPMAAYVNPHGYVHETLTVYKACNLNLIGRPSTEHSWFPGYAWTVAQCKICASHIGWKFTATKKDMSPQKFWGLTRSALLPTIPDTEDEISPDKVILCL
Sequence of CRBN-DDB1 (Q16531 whole entry partner): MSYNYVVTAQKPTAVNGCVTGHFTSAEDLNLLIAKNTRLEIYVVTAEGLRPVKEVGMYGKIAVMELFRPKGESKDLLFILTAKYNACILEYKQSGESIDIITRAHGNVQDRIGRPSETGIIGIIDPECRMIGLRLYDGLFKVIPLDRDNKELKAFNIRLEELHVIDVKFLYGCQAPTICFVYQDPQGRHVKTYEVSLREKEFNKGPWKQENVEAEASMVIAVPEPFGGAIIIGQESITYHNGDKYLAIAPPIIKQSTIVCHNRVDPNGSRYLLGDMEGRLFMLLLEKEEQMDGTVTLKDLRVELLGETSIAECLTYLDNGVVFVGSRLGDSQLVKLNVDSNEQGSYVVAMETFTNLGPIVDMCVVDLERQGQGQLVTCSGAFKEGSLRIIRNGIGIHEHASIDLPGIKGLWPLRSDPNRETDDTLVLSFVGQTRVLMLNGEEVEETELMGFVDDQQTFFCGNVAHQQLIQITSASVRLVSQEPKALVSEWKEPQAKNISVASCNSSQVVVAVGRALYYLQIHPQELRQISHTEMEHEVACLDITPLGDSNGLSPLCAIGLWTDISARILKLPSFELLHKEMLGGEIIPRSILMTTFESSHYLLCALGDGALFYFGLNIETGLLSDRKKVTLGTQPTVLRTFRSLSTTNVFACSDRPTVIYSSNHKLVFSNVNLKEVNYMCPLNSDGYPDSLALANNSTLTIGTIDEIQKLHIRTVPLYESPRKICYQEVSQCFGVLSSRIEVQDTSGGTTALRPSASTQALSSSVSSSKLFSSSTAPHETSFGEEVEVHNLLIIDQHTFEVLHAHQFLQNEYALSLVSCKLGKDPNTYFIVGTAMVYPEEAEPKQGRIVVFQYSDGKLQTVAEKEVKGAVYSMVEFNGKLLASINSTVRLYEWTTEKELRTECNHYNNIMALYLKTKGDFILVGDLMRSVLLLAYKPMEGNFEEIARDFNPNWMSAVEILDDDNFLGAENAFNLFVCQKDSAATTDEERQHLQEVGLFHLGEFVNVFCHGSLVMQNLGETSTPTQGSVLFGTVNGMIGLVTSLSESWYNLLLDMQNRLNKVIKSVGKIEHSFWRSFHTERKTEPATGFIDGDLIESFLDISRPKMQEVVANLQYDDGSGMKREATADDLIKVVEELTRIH

For the molecule `O=C1CCC(N2Cc3ccc(CNC(=O)OCC4CCc5ccccc54)cc3C2=O)C(=O)N1` (stereo not drawn) [Compound 18, (2,3-dihydro-1H-inden-1-yl)methyl N-{[2-(2,6-dioxopiperidin-3-yl)-3-oxo-2,3-dihydro-1H-isoindol-5-yl]methyl}carbamate], on CDK2 [1], the Dmax lay within 10 to 50%. On CRBN-DDB1, this molecule gave a Ki of 100 to 1000 nM.
On CDK2 [1], `COC1CC(COC(=O)NCc2ccc3c(c2)C(=O)N(C2CCC(=O)NC2=O)C3)C1` (stereo not drawn) [Compound 66, (3-methoxycyclobutyl)methyl N-{[2-(2,6-dioxopiperidin-3-yl)-3-oxo-2,3-dihydro-1H-isoindol-5-yl]methyl}carbamate] yielded a Dmax of 10 to 50%. The same molecule came in with a Ki on CRBN-DDB1 of 100 to 1000 nM.
In the case of `CO[C@H]1C[C@@H](OC(=O)NCc2ccc3c(c2)C(=O)N(C2CCC(=O)NC2=O)C3)C1` (stereo partly drawn) [Compound 23, (1s,3s)-3-methoxycyclobutyl N-{[2-(2,6-dioxopiperidin-3-yl)-3-oxo-2,3-dihydro-1H-isoindol-5-yl]methyl}carbamate], the Dmax at CDK2 [1] is not above 10%. Moreover, the Ki on CRBN-DDB1 is 100 to 1000 nM.
At CDK2 [1], `O=C1CCC(N2Cc3ccc(CNC(=O)OCC45CC(c6ccccc6)(C4)C5)cc3C2=O)C(=O)N1` (stereo not drawn) [Compound 6, (3-phenylbicyclo[1.1.1]pentan-1-yl)methyl ((2-(2,6-dioxopiperidin-3-yl)-3-oxoisoindolin-5-yl)methyl)carbamate] gave a Dmax of 10 to 50%.
In the case of `O=C1CCC(N2Cc3ccc(CNc4nnc(C5CCCCC5)o4)cc3C2=O)C(=O)N1` (stereo not drawn) [Compound 141, 3-(6-(((5-cyclohexyl-1,3,4-oxadiazol-2-yl)amino)methyl)-1-oxoisoindolin-2-yl)piperidine-2,6-dione], the Ki at CRBN-DDB1 lay in the range of 100 to 1000 nM. This molecule returned a Dmax on CDK2 [2] of 10 to 50%.
At CRBN-DDB1, `O=C1CCC(N2Cc3c(cc(CNc4nnc(C5CC6(CCC6)C5)o4)cc3C(F)(F)F)C2=O)C(=O)N1` (stereo not drawn) [Compound 145, 3-(1-oxo-6-(((5-(spiro[3.3]heptan-2-yl)-1,3,4-oxadiazol-2-yl)amino)methyl)-4-(trifluoromethyl)isoindolin-2-yl)piperidine-2,6-dione] had a Ki of 100 to 1000 nM. Further, the “CDK2 NanoBiT Dmax (%)” value at CDK2 [2] (HEK293 clonal line with CRISPR KI HiBiT tag on CDK2, Endurazine live cell substrate) was “B (B represents a Dmax value of >10% and ≤50%)”.
With `O=C1CCC(N2Cc3c(F)cc(CNC(=O)OCC4CC5(CCC5)C4)cc3C2=O)C(=O)N1` (stereo not drawn) [Compound 122, spiro[3.3]heptan-2-ylmethyl ((2-(2,6-dioxopiperidin-3-yl)-7-fluoro-3-oxoisoindolin-5-yl)methyl)carbamate], the inhibition constant (Ki) on CRBN-DDB1 fell in the range of 100 to 1000 nM. Also, the Dmax at CDK2 [2] fell in the range of 50 to 80%.
On CRBN-DDB1, `O=C1CCC(N2Cc3c(Br)cc(CNc4nnc(C5CC6(CCC6)C5)o4)cc3C2=O)C(=O)N1` (stereo not drawn) [Compound 138, 3-(4-bromo-1-oxo-6-(((5-(spiro[3.3]heptan-2-yl)-1,3,4-oxadiazol-2-yl)amino)methyl)isoindolin-2-yl)piperidine-2,6-dione] returned a Ki not above 100 nM. The same molecule came in with a Dmax on CDK2 [2] of 50 to 80%.
On the same counts, the results for `O=C1CCC(N2Cc3ccc(CNC(=S)OCC4CC5(CCC5)C4)cc3C2=O)C(=O)N1` (stereo not drawn) [Compound 111, O-(spiro[3.3]heptan-2-ylmethyl) ((2-(2,6-dioxopiperidin-3-yl)-3-oxoisoindolin-5-yl)methyl)carbamothioate] are not above 100 nM and 10 to 50%.
At CRBN-DDB1, `CC1(COC(=O)NCc2ccc3c(c2)C(=O)N(C2CCC(=O)NC2=O)C3)CCOCC1` (stereo not drawn) [Compound 83, (4-methyloxan-4-yl)methyl N-{[2-(2,6-dioxopiperidin-3-yl)-3-oxo-2,3-dihydro-1H-isoindol-5-yl]methyl}carbamate] yielded a Ki of 100 to 1000 nM. On CDK2 [2], this molecule displayed a Dmax not above 10%.
Turning to `O=C1CCC(N2Cc3ccc(CNC(=O)OCC4CC5(CC5)C4)cc3C2=O)C(=O)N1` (stereo not drawn) [Compound 126, spiro[2.3]hexan-5-ylmethyl ((2-(2,6-dioxopiperidin-3-yl)-3-oxoisoindolin-5-yl)methyl)carbamate], at CRBN-DDB1, the Ki was 100 to 1000 nM. Moreover, the Dmax at CDK2 [2] was 10 to 50%.
On the same counts, the results for `O=C1CCC(N2Cc3c(Cl)cc(CNC(=O)OCC4CC5(CCC5)C4)cc3C2=O)C(=O)N1` (stereo not drawn) [Compound 104, spiro[3.3]heptan-2-ylmethyl ((7-chloro-2-(2,6-dioxopiperidin-3-yl)-3-oxoisoindolin-5-yl)methyl)carbamate] are not above 100 nM and 50 to 80%.
On the same counts, the results for `COc1cc(CNC(=O)OCC2CC3(CCC3)C2)cc2c1CN(C1CCC(=O)NC1=O)C2=O` (stereo not drawn) [Compound 103, spiro[3.3]heptan-2-ylmethyl ((2-(2,6-dioxopiperidin-3-yl)-7-methoxy-3-oxoisoindolin-5-yl)methyl)carbamate] are not above 100 nM and 10 to 50%.
On CRBN-DDB1, `CS(=O)(=O)N1CC(COC(=O)NCc2ccc3c(c2)C(=O)N(C2CCC(=O)NC2=O)C3)C1` (stereo not drawn) [Compound 91, (1-methanesulfonylazetidin-3-yl)methyl N-{[2-(2,6-dioxopiperidin-3-yl)-3-oxo-2,3-dihydro-1H-isoindol-5-yl]methyl}carbamate] yielded a Ki of 100 to 1000 nM. The molecule also returned a Dmax at CDK2 [2] not above 10%.
On the same counts, the results for `O=C1CCC(N2Cc3ccc(CNC(=O)OC4CC5(CCCC5)C4)cc3C2=O)C(=O)N1` (stereo not drawn) [Compound 121, spiro[3.4]octan-2-yl ((2-(2,6-dioxopiperidin-3-yl)-3-oxoisoindolin-5-yl)methyl)carbamate] are 100 to 1000 nM and 10 to 50%.
In the case of `CC(COC(=O)NCc1ccc2c(c1)C(=O)N(C1CCC(=O)NC1=O)C2)C1CCC1` (stereo not drawn) [Compound 58, 2-cyclobutylpropyl N-{[2-(2,6-dioxopiperidin-3-yl)-3-oxo-2,3-dihydro-1H-isoindol-5-yl]methyl}carbamate], the Ki on CRBN-DDB1 was not above 100 nM. This molecule also displayed a Dmax at CDK2 [2] not above 10%.
For `CC1(CCCCOC(=O)NCc2ccc3c(c2)C(=O)N(C2CCC(=O)NC2=O)C3)CC1` (stereo not drawn) [Compound 134, 4-(1-methylcyclopropyl)butyl ((2-(2,6-dioxopiperidin-3-yl)-3-oxoisoindolin-5-yl)methyl)carbamate] the same measures were not above 100 nM and 10 to 50%.
The molecule `C[C@H]1C[C@H](COC(=O)NCc2ccc3c(c2)C(=O)N(C2CCC(=O)NC2=O)C3)C1` (stereo partly drawn) [Compound 119] came in with a Ki on CRBN-DDB1 of 100 to 1000 nM. On CDK2 [2], this molecule returned a Dmax of 10 to 50%.
With `O=C1CCC(N2Cc3ccc(CNC(=O)OCC4CC5(C4)CC(F)(F)C5)cc3C2=O)C(=O)N1` (stereo not drawn) [Compound 125, (6,6-difluorospiro[3.3]heptan-2-yl)methyl ((2-(2,6-dioxopiperidin-3-yl)-3-oxoisoindolin-5-yl)methyl)carbamate], at CRBN-DDB1, the Ki is 100 to 1000 nM. Moreover, on CDK2 [2], the maximal degradation (Dmax) fell in the range of 10 to 50%.
With `O=C1CCC(N2Cc3ccc(CNC(=O)OCC4(CC5CC5)CC4)cc3C2=O)C(=O)N1` (stereo not drawn) [Compound 80, [1-(cyclopropylmethyl)cyclopropyl]methyl N-{[2-(2,6-dioxopiperidin-3-yl)-3-oxo-2,3-dihydro-1H-isoindol-5-yl]methyl}carbamate], at CRBN-DDB1, the Ki was 100 to 1000 nM. On CDK2 [2], the Dmax is not above 10%.

As usually defined, the Dmax is the greatest extent of degradation seen. Read a low Dmax as shallow degradation. As a reminder, the Ki is a measure of affinity in units of concentration, obtained from inhibition or displacement. Higher therefore signals lower affinity.
